Data as given in patent US20120134979A1, “METHODS AND COMPOSITIONS FOR THE TREATMENT OF SICKLE CELL DISEASE” (priority 2010, published 2012).

Columns and labels:
normal human RBCs = test: 2,3-DPG levels in primary cultured normal human RBCs; type: cell-based; conditions: for NECA-mediated 2,3-DPG induction (effect of antagonist): RBCs from normal individuals, 10 μM NECA, antagonists at 10 μM; for 2,3-DPG levels / production (agonist): primary cultured human RBCs from normal individuals, normoxic
Method: (§1) Isolation of total erythrocytes and treatment of human and mouse erythrocytes in vitro. Blood collected with heparin as an anti-coagulant was centrifuged at 240×g for 10 min at room temperature, followed by aspiration of plasma and white interface. Packed red blood cells (RBCs) were washed 3 times with culture media (F-10 Ham's with 1% penicillin/streptomycin, 10% fetal bovine serum (FBS), and re-suspended to 4% hematocrit (HCT). One ml of RBCs was added to each well of a 12-well plate. Normal RBCs purified from humans were treated with different concentrations of 5′-(N-ethyl-carboxamido) adenosine (NECA, an adenosine receptor agonist, Sigma-Aldrich, St. Louis, Mo.) ranging from 1-50 μM for different time points (from 1 to 18 hr) under normoxic conditions. Normal RBCs were treated with 10 μM NECA in the presence or absence of adenosine receptor antagonists, including theophylline, PSB36, SCH442416, MRS1754 and MRS3777 (Tocris Bioscience, St. Louis, Mo.) at 10 μM. In addition, normal RBCs were treated directly with the A2BR agonist (BAY 60-6583, Bayer HealthCare AG, Wuppertal, Germany) or the A2AR agonist (CGS21680) (Tocris). Similarly, the mouse RBCs were treated with or without NECA at 10 μM in the presence or absence of theophylline (10 μM). In addition, RBCs purified from 4 adenosine receptor deficient mice were treated with 10 μM NECA. After 18 hours, cells were collected and 2,3-DPG levels were measured as described below. RBCs were purified from SCD patients and treated with or without 10 μM NECA, 5 units/ml polyethylene glycol-adenosine deaminase (PEG-ADA) or 3 mmol/L glycolic acid (Sigma-Aldrich), 10 μM MRS1754 (A2BR antagonist) under ambient oxygen (normoxia) or different levels of hypoxic conditions (for 3 hours with shaking at 37° C. At the end of experiments, 2,3-DPG levels were measured and the percentage of sickled cells determined as described below.
(§2) 2,3-DPG analysis. 2,3-DPG concentration in RBCs was detected by a commercially available kit (Roche, Nutley, N.J., and as described in Ericson A, de Verdier C H. A modified method for the determination of 2,3-diphosphoglycerate in erythrocytes. Scandinavian journal of clinical and laboratory investigation. 1972; 29(1):84-90).

normal mouse RBCs = test: 2,3-DPG levels in isolated mouse RBCs treated in vitro; type: cell-based; conditions: for NECA-mediated 2,3-DPG induction (effect of inhibitor): normal mouse RBCs
Method: as §1, §2

RBCs from SCD patients [1] = test: Hypoxia-induced 2,3-DPG in erythrocytes purified from SCD patients; type: cell-based, human; conditions: hypoxic conditions (2% oxygen)
Method: as §1, §2

RBCs from SCD patients [2] = test: Hypoxia-induced sickling of RBCs from SCD patients; type: cell-based, human; conditions: RBCs from individuals with SCD, hypoxic conditions
Method: as §1
(§3) Morphological study of erythrocytes and quantification of reticulocytes by flow cytometry. Blood smears were stained using the WG16-500 ml kit (Sigma-Aldrich) for sickled cells and observed using 100× oil immersion objective of Olympus BX60 microscope. […] The percentages of sickled cells among the counted cells were calculated. Reticulocyte was labeled by Retic-COUNT Reagent (Becton Dickinson) and quantified by flow cytometry (Perumbeti, et al., A novel human gamma-globin gene vector for genetic correction of sickle cell anemia in a humanized sickle mouse model: critical determinants for successful correction. Blood. 2009; 114(6):1174-1185).

mouse RBCs = test: cAMP levels in isolated mouse RBCs; type: cell-based
Method: Isolation of total erythrocytes and treatment of human and mouse erythrocytes in vitro. Blood collected with heparin as an anti-coagulant was centrifuged at 240×g for 10 min at room temperature, followed by aspiration of plasma and white interface. […] After 18 hours, cells were collected and 2,3-DPG levels were measured as described below. RBCs were purified from SCD patients and treated with or without 10 μM NECA, 5 units/ml polyethylene glycol-adenosine deaminase (PEG-ADA) or 3 mmol/L glycolic acid (Sigma-Aldrich), 10 μM MRS1754 (A2BR antagonist) under ambient oxygen (normoxia) or different levels of hypoxic conditions (for 3 hours with shaking at 37° C. At the end of experiments, 2,3-DPG levels were measured and the percentage of sickled cells determined as described below.
cAMP measurement. Quantitative assays for cAMP contents in RBCs were performed by using a commercial enzyme immunoassay kit (Assay Designs Inc., Michigan, USA).

SCD Tg mice [3] = test: Life span of RBCs in SCD Tg mice (in vivo biotin labelling); set-up: species or system mouse
Method: Measurement of life span of RBCs in SCD Tg mice. SCD Tg mice were treated with or without PEG ? ADA (2.5 unit/week) for 8 weeks. At 6 week-treatment, RBCs were labeled in vivo by using N-hydroxysuccinimide (NHS) biotin and the life span of circulating red blood cells was measured as described (Perumbeti, et al. A novel human gamma-globin gene vector for genetic correction of sickle cell anemia in a humanized sickle mouse model: critical determinants for successful correction. Blood. 2009; 114(6):1174-1185).
Specifically, 50 mg/kg of NHS biotin was injected into the retro-orbital plexus of SCD Tg mice (prepared in 100 μl sterile saline just prior to injection; initially dissolved at 50 mg/ml in N,—N,-dimethylacetamide) Blood samples (only 5 μl) were collected after first day of biotin-injection from tail vein by venipuncture to determine the percentage of RBCs labeled with biotin. Subsequently, 5 μl of blood were obtained by tail vein every 3 days for measurement of biotinylated RBCs until the 10th day. The percentage of biotinylated RBCs was calculated by determining the fraction of peripheral blood cells labeled with Ter-119 (to identify RBCs) that were also labeled with a streptavidin-conjugated fluorochrome by flow cytometry.

SCD Tg mice [4] = test: Organ weight, histology and heme content in SCD Tg mice after chronic treatment; type: in vivo, mouse; conditions: 8 weeks treatment, lung, liver, spleen (PSB1115 also kidney)
Method: (§4) Chronic PEG-ADA therapy. SCD transgenic mice, at eight weeks of age, were divided to two groups. One group was injected with 2.5 U PEG-ADA weekly for 8 weeks. This dosing protocol was designated SCD with PEG-ADA treatment regimen (SCD+PEG-ADA). Another group was injected with normal saline for 8 weeks; it was designated as SCD without PEG-ADA treatment regimen (SCD). Wild-type mice (C57Bl/6) used as control were injected with saline or PEG-ADA as with the SCD groups.
(§5) Chronic treatment with A2BR antagonist, PSB1115. SCD transgenic mice or wild type mice (eight weeks of age) were divided to two groups, one groups was injected with 200 μg of PSB1115 (an A2B receptor antagonist: obtained from Tocris Bioscience, St. Louis, Mo.) in PBS, daily for 8 weeks. One of groups was injected with saline.
Mouse organ isolation and histological analysis. Mice were anesthetized and body weight was determined. Organs were isolated and weighed. Half of each organ was quickly frozen in liquid nitrogen and then stored at −80° C. for heme content measurements as described below. The remaining half of each organ was fixed with 4% paraformaldehyde in PBS overnight at 4° C. Fixed tissues were rinsed in PBS, dehydrated through graded ethanol washes, and embedded in paraffin. 5 μm sections were collected on slides and stained with haematoxylin and eosin (H&E). Semiquantification of histological changes was analyzed by Image-Plus, Pro software.
Heme content measurement in multiple mouse tissues. Different organs were quickly removed and frozen in liquid nitrogen as described above. Heme was extracted from organs by homogenization with 1% Triton x-100 in PBS with 1× proteinase inhibitors (Roche) and the supernatant was collected following centrifugation at 20,000 g for 10 minutes at 4° C. Heme content was quantified following the instructions of QuantiChrom Heme Assay Kit (BioAssay Systems, Hayword, Calif.).

SCD Tg mice [5] = test: Hematological parameters of SCD Tg mice treated with PEG-ADA or PSB1115 for 8 weeks; type: in vivo, mouse; conditions: 8 weeks treatment
Source text: Mice. Berkley sickle cell disease transgenic mice (SCD Tg mice), expressing exclusively human sickle hemoglobin (HbS) were purchased from The Jackson Laboratory Inc (Paszty, C. Transgenic and gene knock-out mouse models of sickle cell anemia and the thalassemias. Curr Opin Hematol 4, 88-93, 1997). C57BL/6 mice used as controls were purchased from Harlan Laboratories. Adenosine receptor deficient mice were obtained from the following sources: A1R-deficient mice (Jurgen Schnermann, NIDDK, NIH); A2AR-deficient mice (Jiang-Fan Chen, Boston University School of Medicine); A2BR-deficient mice (Michael R. Blackburn, University of Texas-Houston Medical School); and A3R-deficient mice (Marlene Jacobson, Merck Research Laboratories). All receptor deficient mice were backcrossed at least 10 generations onto the C57Blk/6J background and were genotyped according to established protocols (Sun, D., et al. Mediation of tubuloglomerular feedback by adenosine: evidence from mice lacking adenosine receptors. Proc Natl Acad Sci USA 98, 9983-9988, 2001; Nemeth, Z. H., et al. Adenosine receptor activation ameliorates type 1 diabetes. FASEB J, 2007; Chen, J. F., et al. A2A adenosine receptor deficiency attenuates brain injury induced by transient focal ischemia in mice. J Neurosci 19, 9192-9200, 1999; Salvatore, C. A., et al. Disruption of the A3 adenosine receptor gene in mice and its effect on stimulated inflammatory cells. The Journal of Biological Chemistry 275, 4429-4434, 2000). Animals were maintained in accordance with institutional and NIH guidelines under research protocols that were reviewed and approved by the University of Texas Health Science Center at Houston Animal Welfare Committee.
as §4, §5, §3

SCD Tg mice [6] = test: 2,3-DPG in RBCs and saturated Hb in SCD Tg mice after chronic treatment; type: in vivo, mouse; conditions: steady state, 8 weeks treatment
Method: as §4, §5, §2
Measurement of percentage of saturated Hb in mice. Percentage of saturated Hb (SpO2) in mice was measured by Oxysat (Kent Scientific Corp, CT). Mice were held in mouse holders (Kent Scientific Corp, CT) and Oxysat sensor was placed on a site approximately 1 cm from the base of the tail. When mouse was calm, the SpO2 was continuously recorded for about 2 minutes. The data were collected and SpO2 was calculated by average of SpO2 in two-minute measurement.

COc1ccc(CCCn2ncc3c2nc(N)n2nc(-c4ccco4)nc32)cc1 [SCH442416]
NECA-mediated 2,3-DPG induction (effect of antagonist) (normal human RBCs): not

Cn1c(=O)c2[nH]cnc2n(C)c1=O [theophylline]
NECA-mediated 2,3-DPG induction (effect of antagonist) (normal human RBCs): inhibited | NECA-mediated 2,3-DPG induction (effect of inhibitor) (normal mouse RBCs; NECA 10 μM): prevented

CCCn1c(=O)c2[nH]c(-c3ccc(OCC(=O)Nc4ccc(C#N)cc4)cc3)nc2n(CCC)c1=O [MRS1754]
hypoxia-mediated induction of 2,3-DPG (RBCs from SCD patients [1]): reduced | percentage of sickled cells (RBCs from SCD patients [2]): significantly reduced | NECA-mediated 2,3-DPG induction (effect of antagonist) (normal human RBCs): inhibited

CCNC(=O)[C@H]1O[C@@H](n2cnc3c(N)nc(NCCc4ccc(CCC(=O)O)cc4)nc32)[C@H](O)[C@@H]1O [CGS21680]
2,3-DPG levels / production (agonist) (normal human RBCs): not

CCCCn1c(=O)c2[nH]c(C34CC5CC(CC3C5)C4)nc2n(CCCO)c1=O [PSB36]
NECA-mediated 2,3-DPG induction (effect of antagonist) (normal human RBCs): not

N#Cc1c(N)nc(SCC(N)=O)c(C#N)c1-c1ccc(OCC2CC2)cc1 [BAY 60-6583]
2,3-DPG levels / production (agonist) (normal human RBCs): induced 2,3-DPG production in a dosage-dependent manner

CCNC(=O)[C@H]1O[C@@H](n2cnc3c(N)ncnc32)[C@H](O)[C@@H]1O [NECA, 5′-N-ethylcarboxamidoadenosine]
hypoxia-mediated induction of 2,3-DPG (RBCs from SCD patients [1]): significantly stimulated a further increase | cAMP production (mouse RBCs; RBCs from A2BR-deficient mice): not | cAMP production (mouse RBCs; RBCs from WT mice): capable of inducing cAMP production | percentage of sickled cells (RBCs from SCD patients [2]): significantly increased | 2,3-DPG levels / production (agonist) (normal human RBCs): stimulated 2,3-DPG levels in a dosage and time-dependent manner | NECA-mediated 2,3-DPG induction (normal mouse RBCs; RBCs from A2BR-deficient mice): did not occur | 2,3-DPG levels (normal mouse RBCs; primary normal mouse mature erythrocytes, NECA 10 μM, 18 hours): stimulated an increase

O=S(=O)(NCCNC/C=C/c1ccc(Br)cc1)c1cccc2cnccc12 [H-89]
hypoxia-mediated induction of 2,3-DPG (RBCs from SCD patients [1]): reduced | percentage of sickled cells (RBCs from SCD patients [2]): significantly reduced | NECA-mediated 2,3-DPG induction (effect of inhibitor) (normal mouse RBCs; NECA 10 μM): significantly inhibited

O=C(O)CO [glycolate, glycolic acid]
hypoxia-mediated induction of 2,3-DPG (RBCs from SCD patients [1]): reduced | percentage of sickled cells (RBCs from SCD patients [2]): significantly reduced

c1ccc(Oc2nc(NC3CCCCC3)c3[nH]cnc3n2)cc1 [MRS3777]
NECA-mediated 2,3-DPG induction (effect of antagonist) (normal human RBCs): not

CCCn1c(=O)[nH]c2nc(-c3ccc(S(=O)(=O)O)cc3)[nH]c2c1=O [PSB1115, reference compound]
fold increase of half-life of RBCs (SCD Tg mice [3]; chronic treatment vs untreated): 2.75 fold | half-life of RBCs (SCD Tg mice [3]; chronic treatment, untreated 2 days): 132 h | congestion, vascular damage and necrosis in multiple tissues (histology) (SCD Tg mice [4]): reduced | HCT (SCD Tg mice [5]): 31.82 ± 3.43 % | Hb (SCD Tg mice [5]): 8.25 ± 0.29 g/dL | MCH (SCD Tg mice [5]): 12.78 ± 0.46 pg | MCHC (SCD Tg mice [5]): 26.02 ± 1.82 g/dL | MCV (SCD Tg mice [5]): 49.17 ± 1.82 fL | RDW (SCD Tg mice [5]): 28.27 ± 1.36 % | Reticulocyte (SCD Tg mice [5]): 37.15 ± 3.27 % | Sickle cell (SCD Tg mice [5]): 9.07 ± 0.75 % | WBC (SCD Tg mice [5]): 11.95 ± 3.27 k/μl | RBC (SCD Tg mice [5]; mean ± SEM): 6.45 ± 0.45 M/μl | 2,3-DPG levels in the RBCs (SCD Tg mice [6]): decreases
